Data taken from the OPERA property sets (Mansouri et al. 2018).

Question: For `C=CCN1CCCC1CNC(=O)c1cc(S(N)(=O)=O)cc(OC)c1OC` (configuration not stated), which logP is on record?
Answer: 1.47

Question: With `CCN1CCCC1CNC(=O)c1cc(S(=O)(=O)CC)ccc1OC` (configuration not stated) as the molecule, how does the logP read?
Answer: 1.06

Question: With `CN1CCN(CCCN2c3ccccc3Sc3ccccc32)CC1` as the molecule, how does the logP read?
Answer: 4

Question: Which logP does the source give for `CC(C)NCCCC1(C(N)=O)c2ccccc2-c2ccccc21` here?
Answer: 3.11

Question: For `O=C(NCC1CCCCN1)c1cc(OCC(F)(F)F)ccc1OCC(F)(F)F` (configuration not stated), which logP is on record?
Answer: 3.78

Question: For `CCN1CCCC1CNC(=O)c1cc(S(=O)(=O)CC)c(N)cc1OC` (configuration not stated), which logP is on record?
Answer: 1.1

Question: Which logP does the source give for `CC(=O)Oc1c(C)cc(OCC(O)CNC(C)C)c(C)c1C` (configuration not stated) here?
Answer: 2.66

Question: Which logP does the source give for `CC(C)(C)c1cc(C(O)CCC2CCNCC2)c2ccccc2n1` (configuration not stated) here?
Answer: 3.63

Question: Which logP does the source give for `CNC(=O)Nc1c(OCCN2CCCC2)c(OC)c2occc2c1OC` here?
Answer: 1.38

Question: For `C=CCN1CCCC1CNC(=O)c1cc2nn[nH]c2cc1OC` (configuration not stated), which logP is on record?
Answer: 1.79

Question: With `CC(C)(C)NCC(O)COc1ccccc1C#N` (configuration not stated) as the molecule, how does the logP read?
Answer: 1.6

Question: Which logP does the source give for `CC(C)NCC(O)COc1cccc2c1N(C(=O)c1cccnc1)CCC2` (configuration not stated) here?
Answer: 1.63
